Measurements reported in US5883121A, “Epoxysuccinamide derivative or salt thereof, and medicine comprising the same” (Taiho Pharmaceutical Co., Ltd., priority 1995, dated 1999).
Counter-ions that a name gives are not always drawn.

Columns and labels:
Format in all cases: biochemical
cathepsin H = target: T1, cathepsin H (Homo sapiens, UniProt P09668); assay: Determination of inhibition rate against cathepsin H; conditions: purified cathepsin H (Sigma Co.); substrate Arg-MCA; pH 5.5; 30° C; 10 minutes
T1 construct: purchased Sigma Co
T1 sequence (P09668 98-335): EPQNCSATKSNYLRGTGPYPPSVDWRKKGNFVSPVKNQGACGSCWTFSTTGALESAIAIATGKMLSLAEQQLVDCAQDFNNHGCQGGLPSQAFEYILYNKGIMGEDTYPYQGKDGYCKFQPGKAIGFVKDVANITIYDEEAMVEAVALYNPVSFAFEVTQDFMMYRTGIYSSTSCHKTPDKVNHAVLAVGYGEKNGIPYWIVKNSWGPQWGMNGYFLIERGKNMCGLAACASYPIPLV
Experimental: Determination of inhibition rate against cathepsin L, B and H
A purified product was purchased from Sigma Co. and used as cathepsin H, and as a substrate thereof, Arg-MCA was used.
(§1) Each cathepsin was diluted with a diluent (0.1% Brij 35) to adjust its concentration to 0.3 U (0.1 U: a concentration at which 1.0 nmol of MCA is released per minute at 37° C.). To 500 μl of this solution, were added 250 μl of an activator/buffer (340 mM sodium acetate, 60 mM acetic acid, 4 mM disodium EDTA; pH 5.5). After the mixture was incubated for 1 minute at 30° C., the sample solution of the predetermined concentration and […] of a substrate solution were added to conduct a reaction for 10 minutes.

cathepsin B = target: T2, cathepsin B (Rattus norvegicus, UniProt P00787); assay: Determination of inhibition rate against cathepsin B; conditions: cathepsin B from rat liver; substrate Z-Arg-Arg-MCA; pH 5.5; 30° C; 10 minutes
T2 construct: extracted from a rat liver and completely purified; from tissue; host or cells: rat liver
Experimental: (§2) Determination of inhibition rate against cathepsin L, B and H […]
as §1

cathepsin L = target: T3, cathepsin L (Rattus norvegicus, UniProt P07154); assay: Determination of inhibition rate against cathepsin L; conditions: for B/L: IC50 against cathepsin B divided by IC50 against cathepsin L; for IC50: cathepsin L from rat liver, substrate Z-Phe-Arg-MCA, pH 5.5, 30° C, 10 minutes
T3 construct: extracted from a rat liver and completely purified; from tissue; host or cells: rat liver
Experimental: as §2, §1

T3 sequence (P07154 114-288 limits assumed): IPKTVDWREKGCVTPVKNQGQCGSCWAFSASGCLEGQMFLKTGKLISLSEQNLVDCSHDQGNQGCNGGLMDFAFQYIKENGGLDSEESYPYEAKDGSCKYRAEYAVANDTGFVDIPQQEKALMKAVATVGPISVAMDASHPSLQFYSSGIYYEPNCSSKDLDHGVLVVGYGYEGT
T3 sequence (P07154 291-334 limits assumed): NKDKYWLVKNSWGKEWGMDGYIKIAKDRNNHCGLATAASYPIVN
T2 sequence (P00787 129-333 limits assumed): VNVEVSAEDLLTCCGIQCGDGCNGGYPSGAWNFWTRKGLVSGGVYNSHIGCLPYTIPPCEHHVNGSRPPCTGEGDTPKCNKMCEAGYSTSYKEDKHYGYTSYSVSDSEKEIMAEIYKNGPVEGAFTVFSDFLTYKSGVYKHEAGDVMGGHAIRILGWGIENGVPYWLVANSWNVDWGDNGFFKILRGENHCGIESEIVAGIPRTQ
T2 sequence (P00787 80-126 limits assumed): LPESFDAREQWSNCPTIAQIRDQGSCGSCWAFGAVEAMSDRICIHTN

IC50 (cathepsin H)	IC50 (cathepsin B)	B/L (cathepsin L)	IC50 (cathepsin L)	SMILES
> 10 µM	> 10 µM	> 285	35 nM	NCCCC[C@H](NC(=O)[C@H]1O[C@@H]1C(=O)NCCc1ccccc1)C(=O)Nc1cccc2ccccc12 [Example 2, Nα-[L-3-trans-(2-phenylethylcarbamoyl)oxirane-2-carbonyl]-L-lysine-1-naphthylamide hydrochloride]
> 10 µM	> 10 µM	> 667	15 nM	NCCCC[C@H](NC(=O)[C@H]1O[C@@H]1C(=O)N[C@@H](Cc1ccccc1)C(N)=O)C(=O)Nc1cccc2ccccc12 [Example 14, Nα-{L-3-trans-[(S)-1-carbamoyl-2-phenylethylcarbamoyl]oxirane-2-carbonyl}-L-lysine-1-naphthylamide hydrochloride]
3.2 µM	3 µM	7500	0.4 nM	NCCCC[C@H](NC(=O)[C@H]1O[C@@H]1C(=O)N[C@@H](Cc1ccccc1)C(=O)NCc1ccccc1)C(=O)Nc1cccc2ccccc12 [Example 26, Nα-{L-3-trans-[(S)-1-benzylcarbamoyl-2-phenylethylcarbamoyl]oxirane-2-carbonyl}-L-lysine-1-naphthylamide hydrochloride]
6 µM	6.8 µM	94.4	72 nM	NCCCC[C@H](NC(=O)[C@H]1O[C@@H]1C(=O)Nc1cccc2ccccc12)C(=O)Nc1cccc2ccccc12 [Example 30, Nα-[L-3-trans-(1-naphthylcarbamoyl)oxirane-2-carbonyl]-L-lysine-1-naphthylamide hydrochloride]
–	0.023 µM	28.4	0.81 nM	NCCCCCCCCNC(=O)[C@H](Cc1ccccc1)NC(=O)[C@H]1O[C@@H]1C(=O)O [Preparation Example 61, N-{N-[(2S,3S)-3-trans-Carboxyoxirane-2-carbonyl]-L-phenylalanyl}-1,8-diaminooctane, reference compound]

SMILES	IC50 (cathepsin H)	IC50 (cathepsin B)	B/L (cathepsin L)	IC50 (cathepsin L)
CC(=O)NCCCC[C@H](NC(=O)[C@H]1O[C@@H]1C(=O)N[C@@H](Cc1ccccc1)C(=O)NCCc1ccccc1)C(=O)Nc1cccc2ccccc12 [Example 32, Nα-{L-3-trans-[(S)-1-(2-phenylethylcarbamoyl)-2-phenylethylcarbamoyl]oxirane-2-carbonyl}-Nε-acetyl-L-lysine-1-naphthylamide]	4.8 µM	7 µM	17500	0.04 nM
